Results taken from US8378134B2, “Hydroxylated contrast enhancement agents” (General Electric Company, priority 2009, dated 2013).

Assay: Relaxivity determinations (T1 and T2 relaxation times, Bruker Minispec mq60)
Type: physicochemical
Conditions: in PBS, 0.25-1 mM Fe chelate, 60 MHz, 40° C.; gradient of 1/T1 vs Fe chelate concentration
Description: A stock solution having a concentration of 1 mM of the contrast enhancement agent was prepared in phosphate buffered saline (PBS) and the iron concentration was verified by elemental analysis. Separate 0.75 mM, 0.50 mM and 0.25 mM samples were prepared from the stock by dilution in PBS and the T1 and T2 relaxations times were recorded in triplicate for each using sample on a Bruker Minispec mq60 instrument (60 MHz, 40° C.). The relaxivities (r1 and r2) were obtained as the gradient of 1/Tx (x=1,2) plotted against Fe chelate concentration following linear least squares regression analysis. Data for contrast enhancement agents having structures III, IV, V, VI, VII, and VII, and a non-hydroxylated control contrast enhancement agent.

Substance	r1 relaxivity
FeHBED(Me)2(OH)2 [III]	0.9 mM⁻¹ s⁻¹
FeHBED(OH')2 [VII]	1.0 mM⁻¹ s⁻¹
FeHBED(OH) [VI]	1.1 mM⁻¹ s⁻¹
FeHBED(OH)2 [IV]	0.8 mM⁻¹ s⁻¹
